pIC50: −log10 of the molar value.
Tested on: limphocitic human cell line MT4 infected by HIV-1 strain BRU
Test: anti-HIV activity on lymphocytes (MT4 cells): inhibition of viral reverse transcriptase activity in culture supernatant
Format: cell-based, HIV-1 strain BRU; human MT4 cells
Details: Human immunodeficiency virus 1, Lymphocyte, MT4 human lymphocytes infected by HIV-1 BRU, 7-8 days culture at 37° C.
Procedure: (§1) The antiviral activity of the compounds of formula I, object of the present invention, was evaluated on the MT4 human lymphocytes infected by HIV-1 BRU strain and on fresh human macrophages infected by the macrophage-trophic HIV-1 PAR strain.
(§2) Both kinds of experiment were carried out following conventionally used methods for the evaluation of reverse transcriptase inhibitors and are predictive of the in vivo anti-HIV activity.
(§3) The anti-HIV activity of the compounds of formula I was evaluated on the limphocitic human cell line MT4 infected by HIV-1 strain BRU and on fresh human macrophages infected by the macrophage-trophic HIV- 1 PAR strain.
The cells, infected and treated with the compounds of formula I, were cultured at 37° C. for 7-8 days. Every 3-4 days the culture supernatant was withdrawn and substituted with fresh medium containing or not the compounds of formula I. The anti-HIV activity was evaluated at the end of the experiment as 50% inhibition (IC50) of the activity of the viral reverse transcriptase in the supernatant of infected cultures in comparison with the control cultures.
The used methodologies were described in the papers published by Rey M. A. et al. on Biochem. Biophys. Res. Commun. (1984), 121, 126-133 and on Virology (1991), 181, 165-171.
(§4) In the following table the data of anti-HIV activity on both the cell lines for some representative compounds of formula I are reported.

Point of comparison: CC(C)(C)OC(=O)N(CCCCCCN(Cc1ccccc1C(F)(F)F)C(=O)OC(C)(C)C)CCCCCC(=O)OC[C@@H]1O[C@H](n2ccc(N)nc2=O)CS1 (relative stereo) [Compound 8, (±)-4-Amino-1-[2-[6-[6-[N'-tert-butoxycarbonyl-N'-(2-trifluoromethylphenyl)methylamino]-N-tert-butoxycarbonyl-hexylamino]-hexanoyloxymethyl]-1,3-oxathiolan-5-yl]-2(1H)-pyrimidinone], pIC50 7.00. Against it:
- Nc1ccn([C@@H]2CS[C@H](CO)O2)c(=O)n1 (relative stereo) [BCH-189, 4-amino-1-(2-hydroxymethyl-1,3-oxathiolan-5-yl)-2(1H)-pyrimidinone, reference compound] — 0.85 log units lower, 6.15
- Nc1ccn([C@@H]2CS[C@H](COC(=O)CCCCNCCCCCCNCc3ccccc3)O2)c(=O)n1 (relative stereo) [Compound 49, (±)-4-Amino-1-[2-[5-[6-(phenylmethylamino)hexylamino]-pentanoyloxymethyl]-1,3-oxathiolan-5-yl]-2(1H)-pyrimidinone] — 0.95 log units lower, 6.05
- O=C(CCCCCNCCCCCNCc1ccccc1)Nc1ccn([C@@H]2CS[C@H](CO)O2)c(=O)n1 (relative stereo) [Compound 57, (±)-1-(2-Hydroxymethyl-1,3-oxathiolan-5-yl)-4-[6-[5-(phenylmethylamino)pentylamino]-hexanoylamino]-2(1H)-pyrimidinone] — 0.61 log units lower, 6.39
- O=C(CCCCCNCCCCCCNCc1ccccc1)Nc1ccn([C@@H]2CS[C@H](CO)O2)c(=O)n1 (relative stereo) [Compound 56, (±)-1-(2-Hydroxymethyl-1,3-oxathiolan-5-yl)-4-[6-[6-phenylmethylamino)hexylamino]-hexanoylamino]-2(1H)-pyrimidinone] — within 0.2 log units, 6.89
- CC(C)(C)OC(=O)N(CCCCCC(=O)OC[C@@H]1O[C@H](n2ccc(N)nc2=O)CS1)Cc1cccc(C(F)(F)F)c1 (relative stereo) [Compound 6, (±)-4-Amino-1-[2-[6-[N-tert-butoxycarbonyl-N-(3trifluoromethylphenyl)methyl-amino]-hexanoyloxymethyl-]1,3-oxathiolan-5-yl]-2(1H)-pyrimidinone] — 1.40 log units higher, 8.40
- Nc1ccn([C@@H]2CS[C@H](COC(=O)CCCCCNCc3ccccc3)O2)c(=O)n1 (relative stereo) [Compound 52, (±)-4-Amino-1-[2-[6-(phenylmethylamino)hexanoyloxymethyl]-1,3-oxathiolan-5-yl]-2(1H)-pyrimidinone] — not separable, 6.00 to 7.00
- CC(C)(C)OC(=O)N(CC(=O)OC[C@@H]1O[C@H](n2ccc(N)nc2=O)CS1)Cc1ccccc1 (relative stereo) [Compound 10, (±)-4-Amino-1-[2-[(N-tert-butoxycarbonyl-N-phenylmethylamino)-acetyloxymethyl]-1,3-oxathiolan-5-yl]-2(1H)-pyrimidinone] — not separable, 7.00 to 8.00
- CC(C)(C)OC(=O)N(CCCCCC(=O)OC[C@@H]1O[C@H](n2ccc(N)nc2=O)CS1)Cc1ccccc1C(F)(F)F (relative stereo) [Compound 7, (±)-4-Amino-1-[2-[6-[N-tert-butoxycarbonyl-N-(2-trifluoromethyl-phenyl)methyl-amino]-hexanoyloxymethyl-]-1,3-oxathiolan-5-yl]-2(1H)-pyrimidinone] — higher, 8.00 to 9.00
- CC(C)(C)OC(=O)N(CCCCCC(=O)OC[C@H]1O[C@@H](n2ccc(N)nc2=O)CS1)CCCCCN(Cc1ccccc1)C(=O)OC(C)(C)C [Compound 2, (2S, 5R)-4-Amino-1-[2-[6-[5-(N'-tert-butoxycarbonyl-N'-phenylmethylamino)-N-tert-butoxycarbonyl-pentylamino]-hexanoyloxymethyl]-1,3-oxathiolan-5-yl]-2(1H)-pyrimidinone] — higher, > 7.00
- Nc1ccn([C@@H]2CS[C@H](COC(=O)CCCCCNCc3cccc(C(F)(F)F)c3)O2)c(=O)n1 (relative stereo) [Compound 53, (±)-4-Amino-1-[2-[6-[(3trifluorophenyl)methylamino]-hexanoyloxymethyl]-1,3-oxathiolan-5-yl]-2(1H)-pyrimidinone] — 0.85 log units lower, 6.15
- CC(C)(C)OC(=O)N(CCCCCC(=O)OC[C@@H]1O[C@H](n2ccc(N)nc2=O)CS1)CCCCCN(Cc1ccccc1)C(=O)OC(C)(C)C (relative stereo) [Compound 1, (±)-4-Amino-1-[2-[6-[5-(N'-tert-butoxycarbonyl-N'-phenylmethylamino)-N-tert-butoxycarbonyl-pentylamino]-hexanoyloxymethyl]-1,3-oxathiolan-5-yl]-2(1H)-pyrimidinone] — higher, 8.30 to 9.00
- CC(C)(C)OC(=O)N(CCCCCC(=O)OC[C@@H]1O[C@H](n2ccc(N)nc2=O)CS1)Cc1ccccc1 (relative stereo) [Compound 4, (±)-4-Amino-1-[2-[6-(N-tert-butoxycarbonyl-N-phenylmethylamino)-hexanoyloxy-methyl]-1,3-oxathiolan-5-yl]-2(1H)-pyrimidinone] — 2.00 log units higher, 9.00
- Nc1ccn([C@@H]2CS[C@H](COC(=O)CCCCCNCCCCCCNCc3ccccc3C(F)(F)F)O2)c(=O)n1 (relative stereo) [Compound 54, (±)-4-Amino-1-[2-[6-[6-[(2-trifluoromethylphenyl)methylamino]-hexylamino]-hexanoyloxymethyl]-1,3-oxathiolan-5-yl]-2(1H)-pyrimidinone] — 0.90 log units lower, 6.10
- CCOC(=O)N(CCCCCC(=O)OC[C@@H]1O[C@H](n2ccc(N)nc2=O)CS1)Cc1ccccc1 (relative stereo) [Compound 9, (±)-4-Amino-1-[2-[6-(N-ethoxycarbonyl-N-phenylmethylamino)-hexanoyloxymethyl]-1,3-oxathiolan-5-yl]-2(1H)-pyrimidinone] — higher, 7.30 to 9.00
- Nc1ccn([C@@H]2CS[C@H](COC(=O)CCCCCNCCCCCNCc3ccccc3)O2)c(=O)n1 (relative stereo) [Compound 48, (±)-4-Amino-1-[2-[6-[5-(phenylmethylamino)pentylamino]-hexanoyloxymethyl]-1,3-oxathiolan-5-yl]-2(1H)-pyrimidinone] — within 0.2 log units, 6.82
- Nc1ccn([C@@H]2CS[C@H](COC(=O)CCCCCNCc3ccccc3C(F)(F)F)O2)c(=O)n1 (relative stereo) [Compound 55, (±)-4-Amino-1-[2-[6-[(2-trifluorophenyl)methylamino]-hexanoyloxymethyl]-1,3-oxathiolan-5-yl]-2(1H)-pyrimidinone] — the same, 7.00

Tested on: fresh human macrophages infected by the macrophage-trophic HIV-1 PAR strain
Test: anti-HIV activity on macrophages: inhibition of viral reverse transcriptase activity in culture supernatant at peak
Format: cell-based, HIV-1 PAR strain; human macrophages
Details: Human immunodeficiency virus 1, Macrophage; fresh human macrophages infected by HIV-1 PAR; about 1 month culture at 37° C.; at peak of reverse transcriptase expression
Procedure: as §1, §2, §3
The cells, infected and treated with the compounds of formula I, were cultured at 37° C. for about 1 month. Every 3-4 days the culture supernatant was withdrawn and substituted with fresh medium containing or not the compounds of formula I. The viral reverse-transcriptase activity, determined in the culture supernatant every 3-4 days, was followed up to the end of the experiment by determining the maximum peak of the enzyme expression. In the correspondence of such a peak the anti-HIV activity was evaluated as 50% inhibition (IC50) of the enzymatic activity in the supernatant of the infected and treated cultures in comparison with the control ones.
The used methodology was described by Schmidtmayerova H. et al. on Virology (1992), 190, 124-133.
as §4

Point of comparison: O=C(CCCCCNCCCCCNCc1ccccc1)Nc1ccn([C@@H]2CS[C@H](CO)O2)c(=O)n1 (relative stereo) [Compound 57, (±)-1-(2-Hydroxymethyl-1,3-oxathiolan-5-yl)-4-[6-[5-(phenylmethylamino)pentylamino]-hexanoylamino]-2(1H)-pyrimidinone], pIC50 7.00. Against it:
- Nc1ccn([C@@H]2CS[C@H](CO)O2)c(=O)n1 (relative stereo) [BCH-189, 4-amino-1-(2-hydroxymethyl-1,3-oxathiolan-5-yl)-2(1H)-pyrimidinone, reference compound] — the same, 7.00
- O=C(CCCCCNCCCCCCNCc1ccccc1)Nc1ccn([C@@H]2CS[C@H](CO)O2)c(=O)n1 (relative stereo) [Compound 56, (±)-1-(2-Hydroxymethyl-1,3-oxathiolan-5-yl)-4-[6-[6-phenylmethylamino)hexylamino]-hexanoylamino]-2(1H)-pyrimidinone] — the same, 7.00

Tested on: HIV
Test: not given
Details: compared with zidovudine, zalcitabine, didanosine and stavudine; WO 91/17159; cited from earlier work

For Nc1ccn([C@@H]2CS[C@H](CO)O2)c(=O)n1 [lamivudine, (2R-cis)-4-amino-1-(2-hydroxymethyl-1,3-oxathiolan-5-yl)-2(1H)-pyrimidinone], the “antiviral potency and toxicity compared with other RT-inhibitors” value is given as “more potent and less toxic antiviral than zidovudine, zalcitabine, didanosine and stavudine”.
